# Test results from patent US10639289B2, “Application of neuraminidase and inhibitors thereof in myocardial ischemia and myocardial infarction” (CHINA PHARMACEUTICAL UNIVERSITY, priority 2016, dated 2020).
# What was measured:
# [1] = tested on: left anterior descending coronary artery ligation model; assay: Acute myocardial ischemia model in rats with left anterior descending coronary artery ligation; format: in vivo, SD rats; conditions: in words
# Procedure: 2. The acute myocardial ischemia model in rats with left anterior descending coronary artery ligation: SD rats are selected and divided into 6 groups according to body weight: blank control group, model group, ZA high dose group (0.5 mg/kg iv). ZA low dose group, (0.2 mg/kg iv), OS high-dose group (10 mg/kg po) and OS low-dose group (5 mg/kg po), with 10 rats in each group. The groups with drug administration are pre-administered drugs 24 h and 12 h in advance before the rats are anesthetized with 3% chloral hydrate at 10 ml/kg, laid flat on their backs and fixed on the rat plate. Then cut them open at between left 4th and 5th ribs to open the pericardium, expose the heart, gently press the thorax to extrude the heart, find the left anterior descending coronary artery in the pulmonary artery cone and left atrium, and immediately bind the root of the left anterior descending coronary artery (pulmonary artery cone and left atrial appendage) with suture 0; push the heart back to the chest, and squeeze out the blood and gas in the chest cavity, close the chest cavity quickly, suture the skin, and the chest opening time is no more than 30 s. […]
# The level of myocardial neuraminidase in the rat is detected by […], and the detection kit is a neuraminidase detection kit, which is measured according to the instruction manual of the test kit. […]
# myocardial neuraminidase = assay: Myocardial neuraminidase level by ELISA after isoproterenol modeling; format: in vivo, SD rats; conditions: ISO model rats; for Effect on the expression level of myocardial neuraminidase: ELISA, in words; for Neuraminidase concentration (myocardial neuraminidase expression level): 3 days
# Procedure: 1. The acute myocardial ischemia model in rats with ISO: SD rats are selected and divided according to body weight into six groups: blank control group, model group, ZA high dose group (0.5 mg/kg iv) and ZA low dose group (0.2 mg/kg iv), OS high dose group (10 mg/kg po), OS low dose group (5 mg/kg po), with 10 rats in each group. The groups with drug administration are administered the drugs continuously for 3 days, and on the second day of drug administration, and 30 minutes after the drug administration, they are performed subcutaneous injection of ISO at a dose of 60 mg/kg; on the third day of drug administration, and 30 minutes after the drug administration, they are also performed subcutaneous injection of ISO at a dose of 60 mg/kg; on the fourth day their tissue samples such as blood and heart are collected on the fourth day. […]
# 3.3 Determination of Myocardial Neuraminidase Level
# The level of myocardial neuraminidase in the rat is detected by […], and the detection kit is a neuraminidase detection kit, which is measured according to the instruction manual of the test kit.
# (§1) 1. The acute myocardial ischemia model in rats with ISO: SD rats are selected and divided according to body weight into five groups: blank control group, model group, coptisine high dose group (100 mg/kg p.o.) and coptisine medium dose group 25 mg/kg p.o.), coptisine low dose group (10 mg/kg p.o.), with 10 rats in each group. The groups with drug administration are administered the drugs continuously for 3 days, and on the second day of drug administration, and 30 minutes after the drug administration, they are performed subcutaneous injection of ISO at a dose of 60 mg/kg; on the third day of drug administration, and 30 minutes after the drug administration, they are also performed subcutaneous injection of ISO at a dose of 60 mg/kg; on the fourth day their tissue samples such as blood and heart are collected on the fourth day.
# 3.3 Method for determination of myocardial neuraminidase level: same as in Embodiment 1.
# serum CK-MB and D-LDH = assay: Serum myocardial damage indicators CK-MB and D-LDH after isoproterenol modeling; format: in vivo, SD rats; design: Serum CK-MB concentration: unit not given here; conditions: ISO model rats; for Serum CK-MB concentration / Serum D-LDH concentration: 3 days
# Procedure: (§2) 1. The acute myocardial ischemia model in rats with ISO: SD rats are selected and divided according to body weight into six groups: blank control group, model group, ZA high dose group (0.5 mg/kg iv) and ZA low dose group (0.2 mg/kg iv), OS high dose group (10 mg/kg po), OS low dose group (5 mg/kg po), with 10 rats in each group. The groups with drug administration are administered the drugs continuously for 3 days, and on the second day of drug administration, and 30 minutes after the drug administration, they are performed subcutaneous injection of ISO at a dose of 60 mg/kg; on the third day of drug administration, and 30 minutes after the drug administration, they are also performed subcutaneous injection of ISO at a dose of 60 mg/kg; on the fourth day their tissue samples such as blood and heart are collected on the fourth day.
# 3.4 the Detection Method for Serum Myocardial Damage Indicator CK-MB and D-LDH
# Measure CK-MB and D-LDH according to the CK-MB detection kit (Roche) and D-LDH detection kit (Invitrogen) operating instructions, respectively.
# as §1
# 3.4 Detection method for serum myocardial damage index CK-MB and D-LDH: same as in Embodiment 1.
# [2] = tested on: isoproterenol-induced acute myocardial ischemia; assay: Cardiac pathology (HE sections) in the acute myocardial ischemia model in rats with ISO; format: in vivo, SD rats; conditions: for Effect on myocardial cell morphology (cardiac pathological sections): all dose groups, in words
# Procedure: as §2
# 3.2 Observe the Cardiac Pathology
# Fix the myocardial tissue of the apical site of the hearts in 10% formaldehyde solution, obtain material conventionally, perform dehydration, embedding in paraffin, and make it into sheets (4 μm thick), stain them with HE, and observe them under an optical microscope.
# as §1
# 3.2 Observing the pathological section of the heart: same as in Embodiment 1.
# [3] = tested on: isoproterenol-induced acute myocardial ischemia; assay: Electrocardiogram in the acute myocardial ischemia model in rats with ISO; format: in vivo, SD rats; conditions: for Impact on the ECG (myocardial damage): all dose groups, in words
# Procedure: as §2
# 3.1 Record the Electrocardiogram
# Record the electrocardiogram of each group using standard II lead
# as §1
# 3.1 Record ECG: Same as Embodiment 1.
# neuraminidase = assay: Inhibitory rate on neuraminidase (neuraminidase assay kit, fluorescence); format: biochemical
# Procedure: 3.5 Determination of the inhibitory rate of coptisine on neuraminidase
# Neuraminidase activity is determined using a neuraminidase assay kit. Accurately weigh standard coptisine, and prepare 200 μM (high dose group), 100 μM (medium dose group), and 50 μM (low dose group) solution in that order. To prepare a standard curve, add 70 μl of neuraminidase assay buffer to each well in a 96-well fluorescent plate, and add 0, 1, 2, 5, 7.5 and 10 μl of neuraminidase to each well, respectively. Then add […] of Milli-Q water per well so the total volume of each well is 90 μl. To test the sample, add 70 μl of neuraminidase detection buffer to each well of a 96-well fluorescent plate, then add 10 μl of neuraminidase and 10 μl of coptisine solution in different concentrations per well. Add 0-10 μl of Milli-Q water per well so the total volume of each well is 90 After shaking for about 1 minute, incubate at 37° C. for 2 minutes so the inhibitor fully interacts with neuraminidase; then add 10 μl of neuraminidase fluorescein substrate per well, mix by shaking, incubate at 37° C. for 30 minutes and then perform fluorescence measurement at excitation wavelength 322 nm and emission wavelength of 450 nm.
# [4] = oseltamivir phosphate high dose group, 10 mg/kg po
# [5] = oseltamivir phosphate low dose group, 5 mg/kg po
# [6] = zanamivir high dose group, 0.5 mg/kg iv
# [7] = zanamivir low dose group, 0.2 mg/kg iv
# [8] = high dose coptisine group, 100 mg/kg p.o.
# [9] = low dose coptisine group, 10 mg/kg p.o.
# [10] = medium dose coptisine group, 25 mg/kg p.o.
smiles,measurement,setting,value
"CCOC(=O)C1=C[C@@H](OC(CC)CC)[C@H](NC(C)=O)[C@@H](N)C1 [Oseltamivir phosphate, oseltamivir phosphate]",Electrocardiogram and cardiac pathology,[1],significantly improve electrocardiogram and cardiac pathology in rats
same,Effect on the expression level of myocardial neuraminidase,myocardial neuraminidase,effective in inhibiting the increase in neuraminidase expression induced by myocardial ischemia in a dose-dependent manner
same,Neuraminidase concentration (myocardial neuraminidase expression level),myocardial neuraminidase; [4],16.7202 U/μL
same,Neuraminidase concentration (myocardial neuraminidase expression level),myocardial neuraminidase; [5],21.547 U/μL
same,Serum CK-MB concentration,serum CK-MB and D-LDH; [4],2846.67
same,Serum D-LDH concentration,serum CK-MB and D-LDH; [4],7.208 mU/ml
same,Serum CK-MB concentration,serum CK-MB and D-LDH; [5],2964.44
same,Serum D-LDH concentration,serum CK-MB and D-LDH; [5],7.793 mU/ml
same,Effect on myocardial cell morphology (cardiac pathological sections),[2],effective in improving myocardial damage in a dose-dependent manner
same,Impact on the ECG (myocardial damage),[3],effectively improve myocardial damage in a dose-dependent manner
"CC(=O)N[C@H]1[C@H]([C@H](O)[C@H](O)CO)OC(C(=O)O)=C[C@@H]1N=C(N)N [Zanamivir, zanamivir]",Electrocardiogram and cardiac pathology,[1],significantly improve electrocardiogram and cardiac pathology in rats
same,Effect on the expression level of myocardial neuraminidase,myocardial neuraminidase,effective in inhibiting the increase in neuraminidase expression induced by myocardial ischemia in a dose-dependent manner
same,Neuraminidase concentration (myocardial neuraminidase expression level),myocardial neuraminidase; [6],16.9244 U/μL
same,Neuraminidase concentration (myocardial neuraminidase expression level),myocardial neuraminidase; [7],21.8341 U/μL
same,Serum CK-MB concentration,serum CK-MB and D-LDH; [6],3544.44
same,Serum D-LDH concentration,serum CK-MB and D-LDH; [6],8.383 mU/ml
same,Serum CK-MB concentration,serum CK-MB and D-LDH; [7],3713.33
same,Serum D-LDH concentration,serum CK-MB and D-LDH; [7],8.804 mU/ml
same,Effect on myocardial cell morphology (cardiac pathological sections),[2],effective in improving myocardial damage in a dose-dependent manner
same,Impact on the ECG (myocardial damage),[3],effectively improve myocardial damage in a dose-dependent manner
c1c2c(cc3c1OCO3)-c1cc3ccc4c(c3c[n+]1CC2)OCO4 [coptisine],Effect on the expression level of myocardial neuraminidase,myocardial neuraminidase,effectively inhibit the increase of neuraminidase expression induced by myocardial ischemia in a dose-dependent manner
same,Reduction of myocardial neuraminidase expression compared with the model group,myocardial neuraminidase; [8],about 40%
same,Reduction of myocardial neuraminidase expression compared with the model group,myocardial neuraminidase; [9],about 21%
same,Reduction of myocardial neuraminidase expression compared with the model group,myocardial neuraminidase; [10],about 29%
same,Reduction of serum CK-MB and LDH levels compared with the model group,serum CK-MB and D-LDH; [8],about 40%
same,Reduction of serum CK-MB and LDH levels compared with the model group,serum CK-MB and D-LDH; [9],about 20%
same,Reduction of serum CK-MB and LDH levels compared with the model group,serum CK-MB and D-LDH; [10],about 30%
same,Effect on myocardial cell morphology (cardiac pathological sections),[2],effectively improve myocardial damage in a dose-dependent manner
same,Inflammatory cell infiltration,[2]; [8],no inflammatory cell infiltration
same,Myocardial cell morphology and intercellular fissure compared with blank control group,[2]; [8],basically consistent with the blank control group
same,"Neuraminidase inhibition, assessment in words",neuraminidase; 50-200 μM,potent neuraminidase inhibitor
same,Inhibitory rate on neuraminidase,neuraminidase; coptisine concentration 50 μM,5.64%
same,Inhibitory rate on neuraminidase,neuraminidase; coptisine concentration 100 μM,28.69%
same,Inhibitory rate on neuraminidase,neuraminidase; coptisine concentration 200 μM,56.25%
same,Impact on the ECG (myocardial damage),[3],effectively improve myocardial damage in a dose-dependent manner
same,Electrocardiogram compared with blank control group,[3]; [8],basically consistent with the blank control group
